Reference: patent publication US8829014B2, “Thiazole and thiophene analogues, and their use in treating autoimmune diseases and cancers” (Board of Supervisors of Louisiana State University and …, priority 2006, dated 2014)

system: carageenan-induced edema; assay: Carrageenan-induced rat paw edema test (anti-inflammatory activity); format: in vivo, Sprague-Dawley rats; design: % Protection: concentration or dose not given beside the values; settings: Rattus norvegicus, po, 3 h, carrageenan-induced rat paw edema; defined in Example 397; read-out: % Protection
Method: Sprague-Dawley rats, male and female, 150-250 g will be used in an edema test. Rats will be deprived of food but not water for 18 hours prior to the experiment. The test compounds will be administered with a blunt-tipped needle orally, 50 mg/kg, as a suspension in 0.1% sodium CMC (carboxymethylcellulose) vehicle. Alternatively, the test compounds will be injected intravenously, subcutaneously, or intraperitoneally. One hour later, 0.1 ml of a 1% carrageenan solution in saline will be injected in the sub-plantar region of the right hind paw of each rat. […] The reading will be repeated 3 hours later. The displacement readings give a measure of carageenan-induced edema. Any reduction in carageenan-induced edema with a test compound, as compared to saline control, is a measure of the anti-inflammatory activity of the test compound. The percentage protection at 50-mg/kg doses was calculated according to the following formula: % Protection=[(Control−Test)/Control]×100%.
Following treatment, the media from the VSMC and HUVEC incubations were removed, and the amount of lactate dehydrogenase (LDH) released into the medium was determined with a commercial kit and expressed as a % increase over vehicle-treated cells. HPT toxicity was determined by the ethidium homodimer (EthHD) uptake assay. […] The lead compounds were also tested in two pairs of cell lines from the skin or prostate, one tumorigenic and one non-tumorigenic, to test for differing toxicity or heightened sensitivity in the tumorigenic lines. The cells were treated for 48 h with vehicle (0.1% DMSO) or 10 μM of each drug candidate, and the viability of the cells was determined by the MTT assay, expressed as a % decrease in viability compared to vehicle-treated cells. The in vivo inflammation model measured the % inhibition of rat paw edema induced by carageenan injection.

Row | Molecule | inhibition in vivo at 50 mg/kg [%]
1 | CCOC(=O)Nc1nc(C)c(-c2nc3ccccc3c(=O)n2-c2ccc(C)cc2)s1 [Example 190, (4-Methyl-5-(4-oxo-3-p-tolyl-3,4-dihydro-quinazolin-2-yl)-thiazol-2-yl)-carbamic acid ethyl ester] | 24
2 | CCOC(=O)Nc1nc(C)c(-c2nc3ccccc3c(=O)n2-c2ccc(C(C)=O)cc2)s1 [Example 259, (4-Methyl-5-(4-oxo-3-(4-acetyl-phenyl)-3,4-dihydro-quinazolin-2-yl)-thiazol-2-yl)-carbamic acid ethyl ester] | 69.7
3 | Cc1ccccc1-n1c(-c2sc(Nc3ccc(Cl)cc3)nc2C)nc2ccccc2c1=O [Example 170, 2-[2-(4-Chlorophenylamino)-4-methyl-thiazol-5-yl]-3-o-tolyl-3H-quinazolin-4-one] | 45

same assay, conditions: Rattus norvegicus, po, 3 h, rat paw edema, 50 mg/kg, reading 3 hours after carrageenan; [(Control−Test)/Control]×100%; read-out: % Protection P

Row | Molecule | inhibition in vivo at 50 mg/kg [%]
4 | O=C(c1cc(-c2ccc(Cl)cc2)c(N2CCOCC2)s1)c1cc(-c2ccc(Cl)cc2)c(N2CCOCC2)s1 [Example 114, Bis-[4-(4-chloro-phenyl)-5-morpholin-4-yl-thiophen-2-yl]-methanone] | 56.6
5 | O=C(Nc1ccc(F)cc1)Nc1nc(Nc2ccc(Cl)cc2)sc1C(=O)c1ccncc1 [Example 360, 1-[2-(4-Chloro-phenylamino)-5-(pyridine-4-carbonyl)-thiazol-4-yl]-3-(4-fluoro-phenyl)-urea] | 69.8
6 | CSc1ccc(-c2cc(-c3nc4ccccc4c(=O)n3-c3cccc(C)c3)sc2N2CCOCC2)cc1 [Example 288, 2-[4-(4-Methylsulfanyl-phenyl)-5-morpholin-4-yl-thiophen-2-yl]-3-m-tolyl-3H-quinazolin-4-one] | 31
7 | CS(=O)(=O)c1ccc(-c2cc(C(=O)c3ccc(Cl)cc3)sc2N2CCOCC2)cc1 [Example 57, (4-Chloro-phenyl)-[4-(4-methanesulfonyl-phenyl)-5-morpholin-4-yl-thiophen-2-yl]-methanone] | 26.9
8 | Cc1cc(-c2sc(Nc3ccc(Cl)cc3)nc2NC(=O)Nc2ccc(F)cc2)ncc1OCC(F)(F)F [Example 361, 1-{2-(4-Chloro-phenylamino)-5-[4-methyl-5-(2,2,2-trifluoro-ethoxy)-pyridin-2-yl]-thiazol-4-yl}-3-(4-fluoro-phenyl)-urea] | 77.9
9 | COc1ccc(Nc2nc(-c3ccccc3)c(C(=O)c3sc(Nc4ccc(OC)cc4)nc3-c3ccccc3)s2)cc1 [Example 393, Bis-[2-(4-methoxy-phenylamino)-4-phenyl-thiazol-5-yl]-methanone] | 32
10 | COc1ccc(Nc2nc(NC(=O)Nc3ccc(F)cc3)c(C(=O)c3ccc(C)cc3)s2)cc1 [Example 362, 1-[2-(4-Methoxy-phenylamino)-5-(4-methyl-benzoyl)-thiazol-4-yl]-3-(4-fluoro-phenyl)-urea] | 61.3
11 | COc1cccc(Nc2nc(-c3ccccc3)c(C(=O)c3sc(Nc4cccc(OC)c4)nc3-c3ccccc3)s2)c1 [Example 392, Bis-[2-(3-methoxy-phenylamino)-4-phenyl-thiazol-5-yl]-methanone] | 62
12 | COc1ccc(C(=O)c2cc(-c3ccncc3)c(N3CCOCC3)s2)cc1 [Example 104, (4-Methoxy-phenyl)-(5-morpholin-4-yl-4-pyridin-4-yl-thiophen-2-yl)-methanone] | 43.5
13 | COc1ccccc1Nc1nc(-c2ccccc2)c(C(=O)c2sc(Nc3ccccc3OC)nc2-c2ccccc2)s1 [Example 391, Bis-[2-(2-methoxy-phenylamino)-4-phenyl-thiazol-5-yl]-methanone] | 59
14 | O=C(c1ccccc1)c1cc(-c2ccncc2)c(N2CCOCC2)s1 [Example 102, (5-Morpholin-4-yl-4-pyridin-4-yl-thiophene-2-yl)-phenyl-methanone] | 52
15 | Cc1ccc(-n2c(-c3cc(-c4ccc(S(C)(=O)=O)cc4)c(N4CCOCC4)s3)nc3ccccc3c2=O)cc1 [Example 292, 2-[4-(4-Methanesulfonyl-phenyl)-5-morpholin-4-yl-thiophen-2-yl]-3-p-tolyl-3H-quinazolin-4-one] | 31
16 | O=C(c1cc(-c2cccnc2)c(N2CCOCC2)s1)c1ccc(Cl)cc1Cl [Example 94, (2,4-Dichloro-phenyl)-(5-morpholin-4-yl-4-pyridin-3-yl-thiophen-2-yl)-methanone] | -51.4
17 | CC(=O)Nc1ccc(C(=O)c2cc(-c3cccnc3)c(N3CCOCC3)s2)cc1 [Example 97, N-[4-(5-Morpholin-4-yl-4-pyridin-3-yl-thiophen-2-carbonyl)-phenyl]-acetamide] | 46.8
18 | CCN(CC)C(/C=N/C(=S)NC(=O)c1ccccc1)c1ccccc1 (stereo not drawn) [Example 38, 1-Benzoyl-3-[1-diethylamino-1-phenyl-eth-(E)-ylidene]-thiourea] | 10.9
19 | Cc1ccccc1-n1c(-c2cc(-c3ccc(Cl)cc3)c(N3CCOCC3)s2)nc2ccccc2c1=O [Example 279, 2-[4-(4-Chloro-phenyl)-5-morpholin-4-yl-thiophen-2-yl]-3-o-tolyl-3H-quinazolin-4-one] | 0
20 | COc1ccc(Nc2nc(N)c(C(=O)c3ccc(Cl)cc3)s2)cc1 [Example 345, ([4-Amino-2-(4-methoxy-phenylamino)-thiazol-5-yl]-(4-chloro-phenyl)-methanone)] | 34.6
21 | COc1ccc(Nc2nc(N)c(C(=O)c3ccncc3)s2)cc1 [Example 350, ([4-Amino-2-(4-methoxy-phenylamino)-thiazol-5-yl]-pyridin-4-yl-methanone)] | 25.8
22 | Cc1ccccc1-n1c(-c2cc(-c3ccc(S(C)(=O)=O)cc3)c(N3CCOCC3)s2)nc2ccccc2c1=O [Example 281, 2-[4-(4-Methanesulfonylphenyl)-5-morpholin-4-yl-thiophen-2-yl]-3-o-tolyl-3H-quinazolin-4-one] | 50

same assay, conditions: carrageenan-induced rat paw edema; defined in Example 397

Row | Molecule | % Protection [%]
23 | O=c1c2ccccc2nc(-c2sc(Nc3ccc(Cl)cc3)nc2-c2ccccc2)n1-c1ccccc1Cl [Example 238, 2-[2-(4-Chlorophenylamino)-4-phenyl-thiazol-5-yl]-3-(2-Chloro-phenyl)1-3H-quinazolin-4-one] | 61

same assay, conditions: rat paw edema, 50 mg/kg, reading 3 hours after carrageenan; [(Control−Test)/Control]×100%

Row | Molecule | % Protection P [%]
24 | N-[4-(5-Morpholin-4-yl-4-thiophene-2-carbonyl)-phenyl]-acetamide [Example 49] | 68.31
25 | Cc1ccccc1-n1c(-c2cc(-c3ccccc3)c(N3CCOCC3)s2)nc2ccccc2c1=O [Example 278, 2-(5-Morpholin-4-yl-4-phenyl-thiophene-2-yl)-3-0-tolyl-3H-quinazolin-4-one] | 37
26 | Bis-(2-methylamino-4-benzayl-thiazole-5-yl)-methanone [Example 132] | 47
27 | 4-[3-Phenyl-5-(4,5,6-trimethoxy-pyridine-2-yl)-thiophen-2-yl]-morpholine [Example 39] | 19.65
28 | Diphenyl[carbonylbis(4-Benzyl-1,3-thiazole-5,2-diyl)]biscarbamate [Example 395] | 66
29 | COc1c(C)cnc(-c2sc(Nc3ccc(Cl)cc3)nc2N)c1C [Example 341] | 32

same assay, conditions: rat paw edema, 50 mg/kg, reading 3 hours after carrageenan; [(Control−Test)/Control]×100%; 50 mg/kg

Row | Molecule | % Protection P [%]
30 | COc1ccc(C(=O)c2sc(Nc3ccccc3)nc2N)cc1 [Example 321, 4-Amino-(2-phenylamino-thiazol-5-yl)-(4-methoxy-phenyl)-methanone] | 12.25
